Results on four molecules are retold here after patent US8841413B2, “Antidiabetic compounds” (Cadila Healthcare Limited, priority 2006, dated 2014).

One data set concerns db/db mice. The data set can be described thus: In vivo glucose reduction in db/db mice. As to conditions: oral (p.o) administration, FIG. 10. On the procedure: Acute single dose 120-min time-course experiments were carried out in male C57BL/6J or db/db mice, age 8-12 weeks, bred in-house. Animals were housed in groups of 6 animals per cage, for a week, in order to habituate them to vivarium conditions (25±4° C., 60-65% relative humidity, 12:12 h light:dark cycle, with lights on at 7.30 am). All the animal experiments were carried out according to the internationally valid guidelines following approval by the ‘Zydus Research Center animal ethical committee’. […] Two days prior to the study, the animals were randomised and divided into 5 groups (n=6), based upon their fed glucose levels. On the day of experiment, food was withdrawn from all the cages, water was given ad-libitum and were kept for overnight fasting. Vehicle (normal saline)/test/standard compounds were administered intraperitoneally (i.p.) or orally, on a body weight basis. […] The glucose estimation was carried out with DPEC-GOD/POD method (Ranbaxy Fine Chemicals Limited, Diagnostic division, India), using Spectramax-190, in 96-microwell plate reader (Molecular devices Corporation, Sunnyvale, Calif.). […] The AUC and BCAUC obtained from graphs were analyzed for one way ANOVA, followed by Dunnett's post test, using Graph Pad prism software. […]

For the next data set, the system named is C57BL/6J mice. The data set can be described thus: Acute single dose 120-min time-course experiment, in vivo glucose reduction in C57BL/6J mice. Also noted: unit not given here. As to conditions: male C57BL/6J mice, Mean ± SEM. The procedure: All the animal experiments were carried out according to the internationally valid guidelines following approval by the ‘Zydus Research Center animal ethical committee’. […] Two days prior to the study, the animals were randomised and divided into 5 groups (n=6), based upon their fed glucose levels. On the day of experiment, food was withdrawn from all the cages, water was given ad-libitum and were kept for overnight fasting. Vehicle (normal saline)/test/standard compounds were administered intraperitoneally (i.p.) or orally, on a body weight basis. […] Blood samples were centrifuged and the separated serum was immediately subjected for the glucose estimation. Serum for insulin estimation was stored at −70° C. until used for the insulin estimation. The glucose estimation was carried out with DPEC-GOD/POD method (Ranbaxy Fine Chemicals Limited, Diagnostic division, India), using Spectramax-190, in 96-microwell plate reader (Molecular devices Corporation, Sunnyvale, Calif.). […] The AUC and BCAUC obtained from graphs were analyzed for one way ANOVA, followed by Dunnett's post test, using Graph Pad prism software. Furthermore, the insulin estimation was carried out using rat/mouse insulin ELISA kit (Linco research, Mo. USA).

The nature of data set [1]: Stability in simulated gastric fluid. It counts as in vitro ADME. As to conditions: 37° C., pH 1.5, pepsin; for % degradation in 24 h when incubated with simulated gastric fluid / half-life (t1/2) in simulated gastric fluid: 2 μM. In a few lines: (§1)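 Reactions were stopped with 10% (v/v) TFA/H2O, then analysed by HPLC on a column equilibrated in TFA/H2O at 1 mL/min. Absorbance was read at 206 nm by UV, and peaks were collected manually for ESI-MS identification.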

Data set [2] is described as follows: Stability against liver microsomes. It counts as in vitro ADME, human. As to conditions: for % degradation in 24 h when incubated with liver microsomes: 2 μM, 37° C.; for half-life at 2 μM: human, human liver microsomes, pH 7.8, 37° C., read-out: half-life (t1/2) with liver microsomes. In outline:
as §1
In general terms: Microsomes from liver hold many membrane-bound enzymes, among them those of drug oxidation.

The target in the next data set is DPP IV (Homo sapiens, UniProt P27487). The data set can be described thus: Stability against DPP IV enzyme. As to conditions: for % degradation in 24 h when incubated with DPP-IV enzyme: 2 μM, 37° C.; for half-life at 2 μM: DPP IV enzyme, pH 7.8, 37° C., read-out: half-life (t1/2) with DPP-IV enzyme. It is filed as in vitro ADME. In outline: as §1
The subject of data set [3] is RIN5F (Rat Insulinoma) cells. The data set can be described thus: In vitro glucose-dependent insulin secretion (RIN5F cell assay). Particulars: 16.7 mM glucose load, mean ± S.D., n = 3. It counts as cell-based.
The nature of data set [4]: Stability in human plasma. It counts as in vitro ADME. Particulars: for half-life at 2 μM: human, pooled human plasma, pH 7.8, 37° C., read-out: half-life (t1/2) in human plasma. In a few lines: as §1
The target of a further data set is T1, human glucagon receptor (Homo sapiens, UniProt P47871).
T1 construct: The full-length cDNA was cloned in pcDNA3.1(Invitrogen); expressed in transfected cells
The data set can be described thus: In vitro human glucagon antagonist activity (inhibition of cAMP production), CHO/human glucagon R cells. It counts as cell-based.

The nature of data set [5]: Stability in simulated intestinal fluid. It counts as in vitro ADME. As to conditions: 37° C.; for % degradation in 24 h when incubated with simulated intestinal fluid / half-life (t1/2) in simulated intestinal fluid: 2 μM, pH 7.5. In outline: as §1
[6] abbreviates: 1 nM test compound (fourth concentration column, between 100 nM and 10 μM) with saturated concentration of glucagon peptide.
Where [7] appears, read: 1 nM test compound with saturated concentration of glucagon peptide.
The mark [8] stands for this setting: 10 nM test compound with saturated concentration of glucagon peptide.
Setting [9] is: 100 nM test compound with saturated concentration of glucagon peptide.
Setting [10] is: 10 μM test compound with saturated concentration of glucagon peptide.

T1 sequence (P47871 26-477): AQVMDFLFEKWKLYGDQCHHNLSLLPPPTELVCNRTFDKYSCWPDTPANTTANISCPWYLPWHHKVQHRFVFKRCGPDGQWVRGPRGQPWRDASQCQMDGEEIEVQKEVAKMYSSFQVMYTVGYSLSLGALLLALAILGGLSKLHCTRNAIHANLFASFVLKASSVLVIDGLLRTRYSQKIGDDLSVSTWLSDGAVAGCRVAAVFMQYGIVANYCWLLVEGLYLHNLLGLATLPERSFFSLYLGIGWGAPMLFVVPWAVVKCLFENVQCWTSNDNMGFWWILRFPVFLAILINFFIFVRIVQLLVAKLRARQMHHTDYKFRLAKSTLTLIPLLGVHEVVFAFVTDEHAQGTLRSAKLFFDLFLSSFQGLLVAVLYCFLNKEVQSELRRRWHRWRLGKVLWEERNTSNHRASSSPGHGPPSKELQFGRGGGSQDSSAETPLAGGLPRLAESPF
Sequence of DPP IV (P27487 whole entry, species assumed): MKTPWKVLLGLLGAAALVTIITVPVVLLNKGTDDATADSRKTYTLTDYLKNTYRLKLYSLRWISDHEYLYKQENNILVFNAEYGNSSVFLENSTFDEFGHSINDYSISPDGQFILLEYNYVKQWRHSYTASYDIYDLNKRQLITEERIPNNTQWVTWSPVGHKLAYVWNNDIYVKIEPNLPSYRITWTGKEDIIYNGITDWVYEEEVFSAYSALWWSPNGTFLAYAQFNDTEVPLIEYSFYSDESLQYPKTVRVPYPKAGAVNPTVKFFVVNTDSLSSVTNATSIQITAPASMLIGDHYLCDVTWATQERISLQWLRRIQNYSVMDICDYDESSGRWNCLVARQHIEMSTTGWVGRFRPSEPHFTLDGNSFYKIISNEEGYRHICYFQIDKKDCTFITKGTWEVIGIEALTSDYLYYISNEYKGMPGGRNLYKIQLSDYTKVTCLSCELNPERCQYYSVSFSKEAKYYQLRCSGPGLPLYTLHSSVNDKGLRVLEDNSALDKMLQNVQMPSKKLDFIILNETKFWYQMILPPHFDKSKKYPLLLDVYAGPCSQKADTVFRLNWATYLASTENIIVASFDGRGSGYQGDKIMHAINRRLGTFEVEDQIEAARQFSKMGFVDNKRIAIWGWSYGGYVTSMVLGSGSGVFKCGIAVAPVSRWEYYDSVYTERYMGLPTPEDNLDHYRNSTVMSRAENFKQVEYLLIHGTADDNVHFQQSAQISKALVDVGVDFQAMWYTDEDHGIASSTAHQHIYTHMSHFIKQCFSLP

`CCc1cc(OC)ccc1-c1ccc(CC(NC(=O)[C@H](CC(=O)O)NC(=O)[C@H](CO)NC(=O)[C@@H](NC(=O)C(C)(Cc2ccccc2F)NC(=O)[C@@H](NC(=O)CNC(=O)[C@H](CCC(N)=O)NC(=O)C(C)(C)NC(=O)[C@@H](N)Cc2c[nH]cn2)[C@@H](C)O)[C@@H](C)O)C(=O)NC(Cc2ccc(-c3ccccc3C(F)(F)F)cc2)C(N)=O)cc1` (single isomer, unassigned) [Seq. ID. No. 32, H-Aib-QGT-(α-Me-2F-Phe)-TSD-Bip(OMe)-Bip(2CF3)]: the “in vivo glucose reduction (in words)” value in the data set on db/db mice is listed as “glucose reduction”. The blood glucose level amounted to 182 ± 2.3 in the data set on C57BL/6J mice (10 nM/kg, i.p, 0 min); 110 ± 2.3 in the data set with C57BL/6J mice (10 nM/kg, i.p, 30 min); 112 ± 3.0 in the data set with C57BL/6J mice (10 nM/kg, i.p, 60 min); 112 ± 1.9 in the data set on C57BL/6J mice (10 nM/kg, i.p, 120 min); 181 ± 2.5 with C57BL/6J mice (2 μM/kg, oral, 0 min); 117 ± 3.3 in the data set with C57BL/6J mice (2 μM/kg, oral, 30 min). The blood glucose level was determined as 112 ± 4.0 in the data set with C57BL/6J mice (2 μM/kg, oral, 60 min) and 108 ± 2.9 with C57BL/6J mice (2 μM/kg, oral, 120 min).
Consider `CCc1cc(OC)ccc1-c1ccc(CC(NC(=O)[C@H](CC(=O)O)NC(=O)[C@H](CO)NC(=O)[C@@H](NC(=O)C(C)(Cc2ccccc2F)NC(=O)[C@@H](NC(=O)CNC(=O)[C@H](CCC(N)=O)NC(=O)[C@H](C)NC(=O)[C@@H](N)Cc2c[nH]cn2)[C@@H](C)O)[C@@H](C)O)C(=O)NC(Cc2ccc(-c3ccccc3C(F)(F)F)cc2)C(N)=O)cc1` (single isomer, unassigned) [compound 28], for which the “% degradation in 24 h when incubated with simulated gastric fluid” value (from here on “% degradation … with simulated gastric fluid”) in data set [1] is 12%. In data set [1], the “half-life (t1/2) in simulated gastric fluid” value is listed as “(8) h”. Also, the “% degradation in 24 h when incubated with liver microsomes” value (shortened to “% degradation … with liver microsomes”) in data set [2] was found to be 78%. Also, the half-life at 2 μM in data set [2] is 1 h; at DPP IV it was 9 h; in data set [4], 8 h. On DPP IV, the “% degradation in 24 h when incubated with DPP-IV enzyme” value (“% degradation … with DPP-IV enzyme” for short) came to 72%. Moreover, the Insulin secretion in data set [3] (0.1 nM test compd.) came to 12.0 ± 0.14 pg/µg/h; in data set [3] (1 nM test compd.) it was 14.3 ± 0.12 pg/µg/h; in data set [3] (10 nM test compd.), 27.8 ± 0.32 pg/µg/h. In addition, the “% degradation in 24 h when incubated with human plasma” value (“% degradation … with human plasma” for short) in [4] (2 μM, 37° C.) is on record as 70%. The “Human Glucagon receptor antagonistic activity, inhibition of cAMP production of Glucagon peptide” value on human glucagon receptor (setting [6]) was found to be 0 pmol/ml/μg prt; at human glucagon receptor (setting [7]) it was 4 ± 0.06 pmol/ml/μg prt; at human glucagon receptor (setting [8]) it was 3 ± 0.11 pmol/ml/μg prt; on human glucagon receptor (setting [9]), 0 pmol/ml/μg prt; at human glucagon receptor (setting [10]), 0 pmol/ml/μg prt. In addition, the “% degradation in 24 h when incubated with simulated intestinal fluid” value (“% degradation … with simulated intestinal fluid” below) in [5] is given as 42%. In [5], the “half-life (t1/2) in simulated intestinal fluid” value was “(6) h”.
`CCc1cc(OC)ccc1-c1ccc(CC(NC(=O)[C@H](CC(=O)O)NC(=O)[C@H](CO)NC(=O)[C@@H](NC(=O)[C@H](Cc2ccccc2)NC(=O)[C@@H](NC(=O)CNC(=O)[C@H](CCC(N)=O)NC(=O)[C@H](CO)NC(=O)[C@@H](N)Cc2c[nH]cn2)[C@@H](C)O)[C@@H](C)O)C(=O)NC(Cc2ccc(-c3ccccc3C(F)(F)F)cc2)C(N)=O)cc1` (single isomer, unassigned) [compound 8]: the “% degradation … with simulated gastric fluid” value in data set [1] is given as 100%. Further, the half-life at 2 μM in [1] (simulated gastric fluid with pepsin, read-out: half-life (t1/2) in simulated gastric fluid) was 0.5 h; in data set [2], 0.5 h; in data set [5] (simulated intestinal fluid, pH 7.5, read-out: half-life (t1/2) in simulated intestinal fluid) it was 0.5 h. Besides, in data set [2], the “% degradation … with liver microsomes” value came out at 100%. Besides, at DPP IV, the “% degradation … with DPP-IV enzyme” value was 76%. Moreover, the Insulin secretion in [3] (0.1 nM test compd.) is 12.6 ± 0.20 pg/µg/h; in data set [3] (1 nM test compd.), 15.9 ± 0.31 pg/µg/h; in data set [3] (10 nM test compd.) it was 28.4 ± 0.11 pg/µg/h. Further, in [4] (2 μM, 37° C.), the “half-life (t1/2) in human plasma” value was “(9) h”. Besides, the “% degradation … with human plasma” value in data set [4] (2 μM, 37° C.) is listed as 78%. Moreover, the “Human Glucagon receptor antagonistic activity, inhibition of cAMP production of Glucagon peptide” value was 0 pmol/ml/μg prt at human glucagon receptor (setting [6]); 4 ± 0.01 pmol/ml/μg prt on human glucagon receptor (setting [7]); 2 ± 0.17 pmol/ml/μg prt on human glucagon receptor (setting [8]); 0 pmol/ml/μg prt at human glucagon receptor (setting [9]); 0 pmol/ml/μg prt at human glucagon receptor (setting [10]). Moreover, the “% degradation … with simulated intestinal fluid” value in data set [5] was 100%.
For the molecule `CCc1cc(OC)ccc1-c1ccc(CC(NC(=O)[C@H](CC(=O)O)NC(=O)[C@H](CO)NC(=O)[C@@H](NC(=O)C(C)(Cc2ccccc2F)NC(=O)[C@@H](NC(=O)CNC(=O)[C@H](CCC(N)=O)NC(=O)[C@H](C)NC(=O)[C@@H](N)Cc2c[nH]cn2)[C@@H](C)O)[C@@H](C)O)C(=O)NC(Cc2ccc(-c3ccccc3C)nc2)C(N)=O)cc1` (single isomer, unassigned) [compound 26], the “% degradation … with simulated gastric fluid” value in [1] is given as 14%. Besides, in data set [1], the “half-life (t1/2) in simulated gastric fluid” value is reported as “(8) h”. The “% degradation … with liver microsomes” value in data set [2] turned out to be 78%. Moreover, the half-life at 2 μM came to 1 h in [2], 9 h at DPP IV and 8 h in data set [4]. The “% degradation … with DPP-IV enzyme” value at DPP IV worked out at 70%. The Insulin secretion in data set [3] (0.1 nM test compd.) turned out to be 12.1 ± 0.51 pg/µg/h; in data set [3] (1 nM test compd.), 14.1 ± 0.19 pg/µg/h; in [3] (10 nM test compd.), 28.1 ± 0.29 pg/µg/h. For the same molecule, the “% degradation … with human plasma” value in data set [4] (2 μM, 37° C.) stood at 71%. Besides, the “Human Glucagon receptor antagonistic activity, inhibition of cAMP production of Glucagon peptide” value on human glucagon receptor (setting [6]) is on record as 4 ± 0.01 pmol/ml/μg prt; at human glucagon receptor (setting [7]), 15 ± 0.11 pmol/ml/μg prt; on human glucagon receptor (setting [8]), 12 ± 0.13 pmol/ml/μg prt; on human glucagon receptor (setting [9]), 8 ± 0.09 pmol/ml/μg prt; at human glucagon receptor (setting [10]), 2 ± 0.08 pmol/ml/μg prt. Also, the “% degradation … with simulated intestinal fluid” value in data set [5] is 40%. In addition, the “half-life (t1/2) in simulated intestinal fluid” value in data set [5] is “(6) h”.
